Here are results for eleven molecules from US11667649B2, “Heteroaromatic macrocyclic ether chemotherapeutic agents” (Nuvalent, Inc., priority 2020, dated 2023).

The test has as its system TPM3-NTRK1-wt IC50 / primary target (e.g. CD74-ROS1-wt) IC50, Ba/F3 cells. As to the kind of experiment: Cell assay TRKA selectivity (TRKA potency divided by primary target potency). Format: cell-based. To be noted: for TPM3-NTRK1-wt/CD74-ROS1-G2032R: TRKA selectivity ratio: TPM3-NTRK1-wt IC50 / CD74-ROS1-G2032R IC50, Ba/F3 cells; for TPM3-NTRK1-wt/CD74-ROS1-wt: TRKA selectivity ratio: TPM3-NTRK1-wt IC50 / CD74-ROS1-wt IC50, Ba/F3 cells; for TPM3-NTRK1-wt/EML4-ALK-L1196M-G1202R: TRKA selectivity ratio: TPM3-NTRK1-wt IC50 / EML4-ALK-L1196M-G1202R IC50, Ba/F3 cells; for TPM3-NTRK1-wt/EML4-ALK-wt: TRKA selectivity ratio: TPM3-NTRK1-wt IC50 / EML4-ALK-wt IC50, Ba/F3 cells. The text has this: Genes encoding CD74-ROS1 wild-type (wt), CD74-ROS1 G2032R, CD74-ROS1 S1986F, CD74-ROS1 L2026M, CD74-ROS1 D2033N, EML4-ALK wt (variant 1), EML4-ALK G1202R (variant 1), EML4-ALK L1196M/G1202R (variant 1), EML4-ALK G1202R/G1269A (variant 1), EML4-ALK G1202R/L1198F (variant 1), and TPM3-TRKA were synthesized at GeneRay, cloned into the retroviral construct pMSCV-puro (Biovector), and packaged into retroviral particles. The virus was used to infect Ba/F3 cells (RIKEN) at multiplicity of infection=1 for 1 day. Infected cells were rescued in media (RPMI-1640 with 10% fetal bovine serum and 1% streptomycin and penicillin) supplemented with mouse IL-3 (10 ng/mL) for 2 days, and stable cell lines were selected by IL-3 withdrawal and puromycin (0.8 μg/mL) for 7 days. Monoclones were selected by single-cell dilution in IL-3-free medium containing puromycin (0.8 μg/mL). Transformation of desired genes was confirmed by Sanger sequencing and western blot using the following antibodies: ROS1 (CST #3287), ALK (CST #3633), and pan-TRK (Abcam #76291).
Stable cells were plated at 1,000 cells/well (40 μL) in a 384-well plate for 1 day. Test compounds (40 nL) were then added in a 3-fold dilution series using the TECAN EVO200 liquid handler and incubated for 72 hours. Plates were equilibrated at room temperature for 15 minutes followed by addition of 40 μL CellTiter-Glo reagent (Promega). Luminescence was measured on a plate reader. Half-maximal inhibitory concentration (IC50) was calculated from percent inhibition and inhibitor concentration using four-parameter logistic regression. […] Exemplary data is given in Table 4 (nd is not determined).
TRKA selectivity was calculated by dividing a compound's TRKA potency by its primary target potency (e.g. TPM3-NTRK1-wt IC50/CD74-ROS1-wt IC50). Compound selectivity can be interpreted by binning ratio values: bin A for very high selectivity, ratio>30-fold; bin B for high selectivity, ratio>10-fold; bin C for moderate selectivity, ratio≥1; and bin D for low selectivity, ratio<1. […] (nd=not determined).

`C[C@H]1Oc2cc(cnc2N)-c2c(C#N)nnn2Cc2cn(C)nc2-c2ccc(F)cc21` [Example 24, (19R)-22-amino-16-fluoro-10,19-dimethyl-20-oxa-4,5,6,10,11,23-hexaazapentacyclo[19.3.1.0^2,^6.0^8,^12.0^13,^18]pentacosa-1(24),2,4,8,11,13,15,17,21(25),22-decaene-3-carbonitrile]: the TPM3-NTRK1-wt/CD74-ROS1-G2032R entry is “A (bin A for very high selectivity, ratio>30-fold)”; the TPM3-NTRK1-wt/CD74-ROS1-wt result is listed as “A (bin A for very high selectivity, ratio>30-fold)”; the TPM3-NTRK1-wt/EML4-ALK-L1196M-G1202R entry was “C (bin C for moderate selectivity, ratio≥1)”; the TPM3-NTRK1-wt/EML4-ALK-wt entry is reported as “A (bin A for very high selectivity, ratio>30-fold)”.
With `C[C@H]1Oc2cc(cnc2N)-c2c(C#N)nnn2Cc2cccnc2-c2ccc(F)cc21` [Example 25, (20R)-23-amino-17-fluoro-20-methyl-21-oxa-4,5,6,12,24-pentaazapentacyclo[20.3.1.0^2,^6.0^8,^13.0^14,^19]hexacosa-1(25),2,4,8(13),9,11,14,16,18,22(26),23-undecaene-3-carbonitrile], the TPM3-NTRK1-wt/CD74-ROS1-G2032R result was “A (bin A for very high selectivity, ratio>30-fold)”; the TPM3-NTRK1-wt/CD74-ROS1-wt result is on record as “A (bin A for very high selectivity, ratio>30-fold)”; the TPM3-NTRK1-wt/EML4-ALK-L1196M-G1202R entry is “B (bin B for high selectivity, ratio>10-fold)”; the TPM3-NTRK1-wt/EML4-ALK-wt entry is listed as “A (bin A for very high selectivity, ratio>30-fold)”.
As for `C[C@H]1Oc2cc(cnc2N)-c2c(C3CCC3)noc2Cc2cn(C)nc2-c2ccc(F)cc21` [Example 26, (19R)-3-cyclobutyl-16-fluoro-10,19-dimethyl-5,20-dioxa-4,10,11,23-tetraazapentacyclo[19.3.1.0^2,^6.0^8,^12.0^13,^18]pentacosa-1(24),2(6),3,8,11,13,15,17,21(25),22-decaen-22-amine], the TPM3-NTRK1-wt/CD74-ROS1-G2032R result was “A (bin A for very high selectivity, ratio>30-fold)”; the TPM3-NTRK1-wt/CD74-ROS1-wt result is recorded as “A (bin A for very high selectivity, ratio>30-fold)”; the TPM3-NTRK1-wt/EML4-ALK-L1196M-G1202R entry is on record as “B (bin B for high selectivity, ratio>10-fold)”; the TPM3-NTRK1-wt/EML4-ALK-wt result is given as “A (bin A for very high selectivity, ratio>30-fold)”.
Consider `C[C@H]1Oc2cc(cnc2N)-c2c(cnn2CC(F)(F)F)Cc2cn(C)nc2-c2ccc(F)cc21` [Example 27, (19R)-16-fluoro-10,19-dimethyl-3-(2,2,2-trifluoroethyl)-20-oxa-3,4,10,11,23-pentaazapentacyclo[19.3.1.0^2,^6.0^8,^12.0^13,^18]pentacosa-1(24),2(6),4,8,11,13,15,17,21(25),22-decaen-22-amine], for which the TPM3-NTRK1-wt/CD74-ROS1-G2032R entry was “A (bin A for very high selectivity, ratio>30-fold)”; the TPM3-NTRK1-wt/CD74-ROS1-wt entry is listed as “A (bin A for very high selectivity, ratio>30-fold)”; the TPM3-NTRK1-wt/EML4-ALK-L1196M-G1202R result is recorded as “A (bin A for very high selectivity, ratio>30-fold)”; the TPM3-NTRK1-wt/EML4-ALK-wt entry is listed as “A (bin A for very high selectivity, ratio>30-fold)”.
On to `CCn1ncc2c1-c1cnc(N)c(c1)O[C@H](C)c1cc(F)ccc1-c1nn(C)c(Cl)c1C2` [Example 28, (19R)-9-chloro-3-ethyl-16-fluoro-10,19-dimethyl-20-oxa-3,4,10,11,23-pentaazapentacyclo[19.3.1.0^2,^6.0^8,^12.0^13,^18]pentacosa-1(24),2(6),4,8,11,13,15,17,21(25),22-decaen-22-amine], for which the TPM3-NTRK1-wt/CD74-ROS1-G2032R entry is given as “A (bin A for very high selectivity, ratio>30-fold)”; the TPM3-NTRK1-wt/CD74-ROS1-wt result was “A (bin A for very high selectivity, ratio>30-fold)”; the TPM3-NTRK1-wt/EML4-ALK-L1196M-G1202R entry was “C (bin C for moderate selectivity, ratio≥1)”; the TPM3-NTRK1-wt/EML4-ALK-wt result was “A (bin A for very high selectivity, ratio>30-fold)”.
As for `C[C@H]1Oc2cc(cnc2N)-c2c(nnn2CC2CC2)Cc2cn(C)nc2-c2ccc(F)cc21` [Example 29, (19R)-3-(cyclopropylmethyl)-16-fluoro-10,19-dimethyl-20-oxa-3,4,5,10,11,23-hexaazapentacyclo[19.3.1.0^2,^6.0^8,^12.0^13,^18]pentacosa-1(24),2(6),4,8,11,13,15,17,21(25),22-decaen-22-amine], the TPM3-NTRK1-wt/CD74-ROS1-G2032R result was “A (bin A for very high selectivity, ratio>30-fold)”; the TPM3-NTRK1-wt/CD74-ROS1-wt entry was “A (bin A for very high selectivity, ratio>30-fold)”; the TPM3-NTRK1-wt/EML4-ALK-L1196M-G1202R entry is “A (bin A for very high selectivity, ratio>30-fold)”; the TPM3-NTRK1-wt/EML4-ALK-wt result is recorded as “A (bin A for very high selectivity, ratio>30-fold)”.
On to `CCc1noc2c1-c1cnc(N)c(c1)OCc1cc(F)ccc1-c1nn(C)cc1C2` [Example 30, 3-ethyl-16-fluoro-10-methyl-5,20-dioxa-4,10,11,23-tetraazapentacyclo[19.3.1.0^2,^6.0^8,^12.0^13,^18]pentacosa-1(24),2(6),3,8,11,13,15,17,21(25),22-decaen-22-amine], for which the TPM3-NTRK1-wt/CD74-ROS1-G2032R entry is reported as “A (bin A for very high selectivity, ratio>30-fold)”; the TPM3-NTRK1-wt/CD74-ROS1-wt entry is given as “A (bin A for very high selectivity, ratio>30-fold)”; the TPM3-NTRK1-wt/EML4-ALK-L1196M-G1202R entry was “C (bin C for moderate selectivity, ratio≥1)”; the TPM3-NTRK1-wt/EML4-ALK-wt result is on record as “A (bin A for very high selectivity, ratio>30-fold)”.
`CCn1ncc2c1-c1cnc(N)c(c1)O[C@H](C)c1cc(F)ccc1-c1nccn1C2` [Example 31, (19R)-3-ethyl-16-fluoro-19-methyl-20-oxa-3,4,8,11,23-pentaazapentacyclo[19.3.1.0^2,^6.0^8,^12.0^13,^18]pentacosa-1(24),2(6),4,9,11,13,15,17,21(25),22-decaen-22-amine]: the TPM3-NTRK1-wt/CD74-ROS1-G2032R result is reported as “A (bin A for very high selectivity, ratio>30-fold)”; the TPM3-NTRK1-wt/CD74-ROS1-wt result is recorded as “A (bin A for very high selectivity, ratio>30-fold)”; the TPM3-NTRK1-wt/EML4-ALK-L1196M-G1202R result is given as “C (bin C for moderate selectivity, ratio≥1)”; the TPM3-NTRK1-wt/EML4-ALK-wt entry was “A (bin A for very high selectivity, ratio>30-fold)”.
For the molecule `CCn1ncc2c1-c1cnc(N)c(c1)O[C@H](C)c1cc(F)ccc1-c1c(cnn1C)C2` [Example 32, (19R)-3-ethyl-16-fluoro-11,19-dimethyl-20-oxa-3,4,10,11,23-pentaazapentacyclo[19.3.1.0^2,^6.0^8,^12.0^13,^18]pentacosa-1(24),2(6),4,8(12),9,13,15,17,21(25),22-decaen-22-amine], the TPM3-NTRK1-wt/CD74-ROS1-G2032R entry was “A (bin A for very high selectivity, ratio>30-fold)”; the TPM3-NTRK1-wt/CD74-ROS1-wt result is listed as “A (bin A for very high selectivity, ratio>30-fold)”; the TPM3-NTRK1-wt/EML4-ALK-L1196M-G1202R result is recorded as “C (bin C for moderate selectivity, ratio≥1)”; the TPM3-NTRK1-wt/EML4-ALK-wt entry is “B (bin B for high selectivity, ratio>10-fold)”.
As to `CCn1ncc2c1-c1cnc(N)c(c1)O[C@H](C)c1cc(F)ccc1-n1nccc1C2` [Example 33, (19R)-3-ethyl-16-fluoro-19-methyl-20-oxa-3,4,11,12,23-pentaazapentacyclo[19.3.1.0^2,^6.0^8,^12.0^13,^18]pentacosa-1(24),2(6),4,8,10,13,15,17,21(25),22-decaen-22-amine], the TPM3-NTRK1-wt/CD74-ROS1-G2032R result was “A (bin A for very high selectivity, ratio>30-fold)”; the TPM3-NTRK1-wt/CD74-ROS1-wt result is on record as “A (bin A for very high selectivity, ratio>30-fold)”; the TPM3-NTRK1-wt/EML4-ALK-L1196M-G1202R result was “B (bin B for high selectivity, ratio>10-fold)”; the TPM3-NTRK1-wt/EML4-ALK-wt entry is reported as “A (bin A for very high selectivity, ratio>30-fold)”.
As for `CCn1ncc2c1-c1cnc(N)c(c1)OCc1cc(F)ccc1-c1nccn1C2` [Example 34, 3-ethyl-16-fluoro-20-oxa-3,4,8,11,23-pentaazapentacyclo[19.3.1.0^2,^6.0^8,^12.0^13,^18]pentacosa-1(24),2(6),4,9,11,13,15,17,21(25),22-decaen-22-amine], the TPM3-NTRK1-wt/CD74-ROS1-G2032R entry was “A (bin A for very high selectivity, ratio>30-fold)”; the TPM3-NTRK1-wt/CD74-ROS1-wt entry is listed as “A (bin A for very high selectivity, ratio>30-fold)”; the TPM3-NTRK1-wt/EML4-ALK-L1196M-G1202R result was “B (bin B for high selectivity, ratio>10-fold)”; the TPM3-NTRK1-wt/EML4-ALK-wt result is on record as “A (bin A for very high selectivity, ratio>30-fold)”.
